Values quoted from earlier work in patent US7241583B2, “TRL1 as an antifungal target” (Oxford Glycosciences (UK) Ltd, priority 2002, dated 2007).

Details: mice; DOX 2 mg/ml in 5% sucrose solution as drinking water, approx. 5 ml per day

Question: With `C[C@H]1c2cccc(O)c2C(O)=C2C(=O)[C@]3(O)C(O)=C(C(N)=O)C(=O)[C@@H](N(C)C)[C@@H]3[C@@H](O)[C@@H]21` [DOX, doxycycline] as the compound, how does the “concentration of DOX in kidney” value read?
Answer: > 10 mg/g of kidney

Question: What about the “concentration of DOX in liver” value of the same compound?
Answer: > 8 mg/g of liver

Question: And the “concentration of DOX in serum” value?
Answer: more than 2 mg/ml of serum
